Reference: patent publication US20090143392A1, “Methods of Treating Obesity and Metabolic Disorders” (ELBION GMBH, priority 2007, published 2009)

How the values were obtained:
[1] = molecular target: T1, PDE10 from pig striatum (Sus scrofa, UniProt A0A287B941); assay: Inhibition of PDE10 from pig striatum; type: biochemical; settings: 0.1 μM [3H]-cAMP, 37° C., 30 minutes
T1 construct: "Striatum from male hybrid pigs (150 kg)"
Description: Phosphodiesterase isoenzyme 10 (PDE10) activity was determined in preparations of human recombinant PDE10A and PDE10 from pig striatum, respectively.
Striatum from male hybrid pigs (150 kg) were collected and frozen at −70° C.
At the day of preparation 0.5 g striatum was homogenised in 10 ml 50 mM Tris/Mg-buffer at 4° C. and centrifuged for one hour at 100000 g.
(§1) Nonspecific activity was tested without the enzyme. […] For determination of IC50 values the Hill-plot, 2-parameter-model, was used.
(§2) Phosphodiesterase isoenzyme 10 (PDE10) activity was determined in preparations of rat, pig and guinea pig striatum respectively. Striatum from male Wistar rats (180-200 g), male hybrid pigs (150 kg) and male guinea pigs (CRL (HA), 500 g) respectively were collected and frozen at −70° C.
(§3) For the enzymatic testing of PDE10 activity 0.5 g of the isolated and frozen striatum was homogenised in 10 ml 50 mM Tris/Mg-buffer at 4° C. and centrifuged for one hour at 100000 g.

[2] = molecular target: T2, PDE10 from rat striatum (Rattus norvegicus, UniProt Q9QYJ6); assay: Inhibition of PDE10 from rat striatum; type: biochemical; settings: 0.1 μM [3H]-cAMP, 37° C., 30 minutes
T2 construct: 0.5 g of the isolated and frozen striatum was homogenised; from tissue; host or cells: rat striatum, ion-exchange FPLC fractions with PDE10 activity
T2 sequence (Q9QYJ6 1-794): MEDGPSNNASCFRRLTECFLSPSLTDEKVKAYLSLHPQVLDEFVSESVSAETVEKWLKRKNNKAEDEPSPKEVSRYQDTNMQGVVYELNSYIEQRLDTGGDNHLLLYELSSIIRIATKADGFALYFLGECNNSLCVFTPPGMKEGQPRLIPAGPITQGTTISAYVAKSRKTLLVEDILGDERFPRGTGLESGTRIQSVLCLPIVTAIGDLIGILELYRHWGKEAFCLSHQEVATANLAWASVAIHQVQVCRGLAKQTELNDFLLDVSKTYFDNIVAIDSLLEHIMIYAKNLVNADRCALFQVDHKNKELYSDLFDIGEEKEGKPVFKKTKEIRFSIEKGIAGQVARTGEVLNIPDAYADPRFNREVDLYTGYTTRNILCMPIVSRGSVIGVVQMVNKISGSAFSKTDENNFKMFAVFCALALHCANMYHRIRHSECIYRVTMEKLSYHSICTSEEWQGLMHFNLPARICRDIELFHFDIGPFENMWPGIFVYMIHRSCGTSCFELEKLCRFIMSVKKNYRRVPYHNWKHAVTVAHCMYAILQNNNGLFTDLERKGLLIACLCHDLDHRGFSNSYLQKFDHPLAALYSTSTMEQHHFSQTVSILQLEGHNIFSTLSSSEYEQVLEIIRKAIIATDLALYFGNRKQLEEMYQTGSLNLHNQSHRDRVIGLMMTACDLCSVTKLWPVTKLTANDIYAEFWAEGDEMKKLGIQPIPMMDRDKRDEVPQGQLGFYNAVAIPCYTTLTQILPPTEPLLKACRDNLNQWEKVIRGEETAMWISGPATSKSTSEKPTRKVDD
Description: as §2, §3, §1

[3] = test system: MK-801-induced psychosis; assay: MK-801-induced psychosis: hyperactivity and stereotyped sniffing; type: in vivo; settings: p.o.; female Wistar rats; MK-801 0.1 mg/kg i.p. 10 min before test; compound 30 min prior; recorded 1 h
Description: Female Wistar rats (Crl: (WI) BR, Charles River, Sulzfeld, Germany) weighing 150 to 180 g were used for the MK-801-induced psychosis. Animals were housed under standard conditions in groups of five on a 12 h light/dark cycle (light on at 0600 h) with ad libitum access to food (Pellets, ssniff M/R 15, Spezialdiät GmbH, Soest/Westfalen) and water.
MK-801 (dizocilpine, MW 337.37) was obtained by Tocris, distributed by Biotrend Chemikalien GmbH, Köln, Germany.
Hydroxyethylcellulose was solved in distilled water.
MK-801 was solved in saline so that an administration volume of 0.5 ml/100 g was reached. The suspensions and solution were placed on a magnetic stirrer before and during dosing procedures.
The behaviour induced by the NMDA antagonist MK-801 is generally accepted as a rat model of psychosis. MK-801 induces stereotyped sniffing, hyperactivity and ataxia in rats after intraperitoneal administration.
Locomotor activity of the rats was recorded by the MotiTest Apparatus (TSE, Bad Homburg, Germany). The test area consisted of a squared arena (45×45 cm) with protective plexiglass walls (20 cm of height) where rats could freely move. Horizontal movements were recorded by 32 infrared photocells arranged along the bottom of each wall of the arena. The activity [sec] was measured by the computer program “ActiMot” (TSE, Bad Homburg, Germany).
Stereotyped sniffing was scored by the experimenter every five minutes for one hour (12 intervals) according to the method described by Andine et al. (1999). The scores of the 12 intervals were summed up at the end of the recording time.
The day of experiment the female rats were placed in the laboratory and received the test compound or vehicle at the appropriate time prior to test. MK-801 0.1 mg/kg was intraperitoneally administered 10 minutes prior to test.
At the beginning of the test the rats were placed in the centre of the squared arena of the MotiTest apparatus. Behaviour of the rats was recorded for one hour. After each run animals were removed and the boxes thoroughly cleaned and dried.
Results were analysed by one way analysis of variance (ANOVA). Tukey test was used for individual comparison. P<0.05 was regarded as significant.

| Compound | IC50 [1] | melting point | IC50 [2] | dose that significantly reversed MK-801-induced hyperactivity [3] | dose that significantly reversed MK-801-induced stereotyped sniffing [3] |
| --- | --- | --- | --- | --- | --- |
| 4-amino-8-methoxy-3-methyl-1-phenyl-imidazo[1,5-a]pyrido[3,2-e]pyrazine [Example 10b] | 3 nM |  | 5 nM |  |  |
| 4-(N-acetyl-amino)-8-methoxy-3-methyl-1-phenyl-imidazo[1,5-a]pyrido[3,2-e]pyrazine [Example 42b] | 41 nM |  | 95 nM |  |  |
| 4-amino-3-methyl-1-propyl-imidazo[1,5-a]pyrido[3,2-e]pyrazine [Example 4b] | 27 nM |  | 57 nM |  |  |
| CCc1nc(C)cn1-c1ccc2nc(C)c3c(C)nc(CC)n3c2n1 [Example 57a] | 11 nM | 73 to 75 °C |  |  |  |
| 4-amino-1-(2-chloro-phenyl)-8-methoxy-3-methyl-imidazo[1,5-a]pyrido[3,2-e]pyrazine [Example 11b] | 0.5 nM |  |  | ≥ 0.5 mg/kg | ≥ 0.5 mg/kg |
| 3,4-dimethyl-8-(piperidin-1-yl)-methoxy-1-propyl-imidazo[1,5-a]pyrido[3,2-e]pyrazine [Example 55a] | 14 nM |  |  | 30 mg/kg | 30 mg/kg |
| CCc1nc(C)c2n1-c1nc(OC)ccc1NC2 [Example 93a, 1-ethyl-8-methoxy-3-methyl-4,5-dihydro-imidazo[1,5-a]pyrido[3,2-e]pyrazine] |  | 139 to 142 °C |  |  |  |
| 4-chloro-8-methoxy-3-methyl-1-propyl-imidazo[1,5-a]pyrido[3,2-e]pyrazine [Intermediate A1] | 4 nM |  | 8 nM |  |  |
| 4-ethoxycarbonylamino-8-methoxy-3-methyl-1-propyl-imidazo[1,5-a]pyrido[3,2-e]pyrazine [Example 63a] | 189 nM |  | 563 nM |  |  |
| 8-methoxy-3-methyl-4-(N-propionyl-amino)-1-propyl-imidazo[1,5-a]pyrido[3,2-e]pyrazine [Example 43b] | 896 nM |  | 2410 nM |  |  |
| CCCc1nc(C)cn1-c1ccc2nc(N)c3c(C)nc(CCC)n3c2n1 [Example 6b, 4-amino-3-methyl-1-propyll-8-(2-propyl-4-methyl-imidazol-1-yl)-imidazo[1,5-a]pyrido[3,2-e]pyrazine] | 1 nM | 215 to 221 °C |  |  |  |
| 4-amino-8-methoxy-3-methyl-1-propyl-imidazo[1,5-a]pyrido[3,2-e]pyrazine [Example 1b] |  |  |  | ≥ 10 mg/kg | ≥ 10 mg/kg |
| 8-methoxy-3-methyl-1-propyl-imidazo[1,5-a]pyrido[3,2-e]pyrazine [Example 35a] | 40 nM |  | 61 nM | 30 mg/kg | ≥ 30 mg/kg |
| 4-(N-acetyl-amino)-1-ethyl-8-methoxy-3-methyl-imidazo[1,5-a]pyrido[3,2-e]pyrazine [Example 40b] |  |  | 220 nM |  |  |
| 1-ethyl-4-(N-formyl-amino)-8-methoxy-3-methyl-imidazo[1,5-a]pyrido[3,2-e]pyrazine [Example 36b] | 80 nM |  | 241 nM |  |  |
| 4-amino-1-(4-fluoro-phenyl)-8-methoxy-3-methyl-imidazo[1,5-a]pyrido[3,2-e]pyrazine [Example 12b] | 6 nM |  |  |  |  |
| 4-chloro-3-methyl-1-propyl-imidazo[1,5-a]pyrido[3,2-e]pyrazin-8-ol [Intermediate A25] | 63 nM |  |  |  |  |
| 8-methoxy-3-methyl-4-(3-isopropyl-ureido)-1-propyl-imidazo[1,5-a]pyrido[3,2-e]pyrazine [Example 68a] | 141 nM |  |  |  |  |
| 4-azido-8-methoxy-3-methyl-1-propyl-imidazo[1,5-a]pyrido[3,2-e]pyrazine [Example 31a] | 171 nM |  |  |  |  |
| 4-(N-formyl-amino)-8-methoxy-3-methyl-1-propyl-imidazo[1,5-a]pyrido[3,2-e]pyrazine [Example 37b] | 29 nM |  | 50 nM |  |  |
| CCCc1nc(C)c2c(N(S(C)(=O)=O)S(C)(=O)=O)nc3ccc(OC)nc3n12 [Example 70a, 4-(N,N-bis-methylsulfonyl)-amino-8-methoxy-3-methyl-1-propyl-imidazo[1,5-a]pyrido[3,2-e]pyrazine] |  |  | 72 nM |  |  |

Now from value to compound, other results behind:

| IC50 [1] | melting point | IC50 [2] | Compound | dose that significantly reversed MK-801-induced hyperactivity [3] | dose that significantly reversed MK-801-induced stereotyped sniffing [3] |
| --- | --- | --- | --- | --- | --- |
| 2 nM | 134 to 136 °C |  | CCCc1nc(C)cn1-c1ccc2nc(Cl)c3c(C)nc(CCC)n3c2n1 [Intermediate A24] |  |  |
| 38 nM | 138 to 140 °C |  | CCCc1nc(C)c2c(Cl)nc3cccnc3n12 [Intermediate A12] |  |  |
| 46 nM | > 360 °C |  | CCc1nc(C)c2c(Br)nc3ccc(O)nc3n12 [Intermediate A26] |  |  |
| 53 nM | 153 to 155 °C |  | CCCc1ncc2c(Cl)nc3ccc(OC)nc3n12 [Intermediate A13] |  |  |
| 34 nM | 149 to 153 °C |  | COc1ccc2nc(Cl)c3c(C)nc(CCC(F)(F)F)n3c2n1 [Intermediate A7] |  |  |
| 11 nM | 145 to 150 °C |  | CCc1nc(C)c2c(Cl)nc3ccc(N(CC)CC)nc3n12 [Intermediate A20] |  |  |
| 56 nM | 110.5 to 113 °C |  | CCCCCc1nc(C)c2c(Cl)nc3ccc(OC)nc3n12 [Intermediate A6] |  |  |
| 4 nM | 240 to 242 °C |  | COc1ccc2nc(Cl)c3c(C)nc(-c4ccccc4)n3c2n1 [Intermediate A9] |  |  |
| 128 nM | 162 to 164 °C |  | COc1ccc2nc(Cl)c3cnc(C(C)C)n3c2n1 [Intermediate A14] |  |  |
| 2 nM | 211 to 213 °C |  | COc1ccc2nc(Cl)c3c(C)nc(C4CCCCC4)n3c2n1 [Intermediate A4] |  |  |
| 97 nM | 117 to 120 °C | 171 nM | CCc1nc(C)c2c(Cl)nc3cccnc3n12 [Intermediate A11] |  |  |
| 71 nM | 115 to 117 °C |  | CCCCCCc1nc(C)c2c(Cl)nc3ccc(OC)nc3n12 [Intermediate A5] |  |  |
| 3 nM | 138 to 141 °C |  | CCc1nc(C)cn1-c1ccc2nc(Cl)c3c(C)nc(CC)n3c2n1 [Intermediate A23] |  |  |
| 52 nM | 283 to 285 °C |  | CCc1nc(C)c2c(Cl)nc3ccc(N4CCN(C)CC4)nc3n12 [Intermediate A22] |  |  |
| 9 nM | 99 to 101 °C |  | CCCc1nc(C)c2c(Cl)nc3ccc(C)nc3n12 [Intermediate A19] |  |  |
